Source: BindingDB's records for doi:10.1021/jm9011609 (University of Manchester, 2009)

Biological target: NAD(P)H dehydrogenase [quinone] 1 (Homo sapiens, UniProt P15559)
Test: Inhibition of NQO1 (With 2 uM BSA)
Details: pH 7.5
Description: On some occasions, potential inhibitors were dissolved in 0.13 M NaOH. Reactions were carried out at 25 deg C and cytochrome c reduction was monitored at 550nm in a BeckmanDU650 spectrophotometer.

Chain of NAD(P)H dehydrogenase [quinone] 1 (P15559 whole entry): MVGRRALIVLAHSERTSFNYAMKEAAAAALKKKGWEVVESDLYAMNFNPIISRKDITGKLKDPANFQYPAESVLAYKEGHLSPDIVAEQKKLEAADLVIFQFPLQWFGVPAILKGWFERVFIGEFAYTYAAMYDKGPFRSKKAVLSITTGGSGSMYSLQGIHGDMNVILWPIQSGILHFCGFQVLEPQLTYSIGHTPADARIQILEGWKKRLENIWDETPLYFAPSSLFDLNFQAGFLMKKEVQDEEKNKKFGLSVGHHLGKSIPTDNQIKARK

IC50	IC50 (25 °C)	SMILES
0.035 µM	0.88 µM	O=c1oc2c(ccc3ccccc32)c(O)c1Cc1ccccc1 [4-hydroxy-2H-chromen-2-one core, 21]
0.006 µM	2.37 µM	O=c1oc2ccc3ccccc3c2c(O)c1Cc1ccc2ccccc2c1 [4-hydroxy-2H-chromen-2-one core, 23]
